# Source: patent US20260092061A1, “COMPOUNDS FOR TARGETED PROTEIN DEGRADATION” (Amphista Therapeutics Limited, priority 2022, published 2026)
# Read-outs that look alike come from different tables or passages of the source.
# Molecular target: T1, BRD9 (Homo sapiens, UniProt Q9H8M2)
# T1 sequence (Q9H8M2 1-597): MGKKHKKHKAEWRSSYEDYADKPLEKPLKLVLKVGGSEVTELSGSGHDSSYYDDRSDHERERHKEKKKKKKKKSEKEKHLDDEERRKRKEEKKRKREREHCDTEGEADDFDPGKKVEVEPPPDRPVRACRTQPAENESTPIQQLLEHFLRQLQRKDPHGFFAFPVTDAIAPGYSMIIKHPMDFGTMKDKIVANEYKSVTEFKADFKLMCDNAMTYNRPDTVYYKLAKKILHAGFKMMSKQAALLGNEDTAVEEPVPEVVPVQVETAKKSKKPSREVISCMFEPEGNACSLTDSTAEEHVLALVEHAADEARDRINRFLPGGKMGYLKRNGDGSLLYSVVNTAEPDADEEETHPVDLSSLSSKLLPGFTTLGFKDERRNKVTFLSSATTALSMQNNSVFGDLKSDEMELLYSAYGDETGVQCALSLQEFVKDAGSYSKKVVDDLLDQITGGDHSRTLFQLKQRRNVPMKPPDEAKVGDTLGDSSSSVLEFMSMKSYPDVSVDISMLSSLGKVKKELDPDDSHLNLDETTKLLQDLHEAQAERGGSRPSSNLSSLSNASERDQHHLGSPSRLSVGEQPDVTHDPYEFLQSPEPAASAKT
# Experiment: BRD9 degradation, HiBiT-BRD9 KI HEK293 (LgBiT) cells, NanoGlo Lytic Endpoint assay (Assay Protocol 1)
# Type: cell-based
# Settings: BRD9 degradation; for Dmax at 1 µM: 1 μM compound at 6 h of treatment, read-out: Assay 1 Dmax
# Protocol: HiBiT-BRD9 KI HEK293 (LgBiT) Cells (Promega CS3023412) were seeded at 8000 cells per well (38 μL) in sterile white bottom 384 well plates (Invitrogen 164610 or Greiner 781080) and incubated overnight at 37° C. with 5% CO2. The next day, compounds were prepared at 1000× final concentration in DMSO and diluted 1:100 in media (DMEM PAN Biotech P04-03550+10% FBS ATCC 302025). 4 μL compound was added to each well of the cell plate and incubated for 6 h at 37° C. with 5% CO2 BRD9 expression was quantified using the NanoGlo Lytic Endpoint assay (Promega N3050). The lytic buffer was equilibrated to room temperature for 10-15 min before lytic reagent was prepared by adding substrate (1:50) and LgBit protein (1:100) in lytic buffer. 40 μL lytic reagent mix was added to each well of the cel plate and plates were centrifuged briefly at ˜50g. Plates were incubated with shaking (350 RPM) for 12-24 min before reading using the LUM plus module of a BMG Pherastar FSX. Data was analysed using Dotmatics software and % BRD9 remaining was calculated by normalisation to average data from high and low control wells (DMSO treated cels and no cells respectively).
# [1] = HEK293, Table 2, Assay Protocol 1
# [2] = Table 2, Assay Protocol 1, 6 h of treatment, read-out: Assay 1 DC50
SMILES,Dmax at 1 µM [1] [%],DC50 [2] [nM],"DC50 (Assay protocol 1, read-out: DC50) [nM]","Dmax (HEK293, Assay protocol 1, read-out: Dmax) [%]"
"COc1cc(-c2cn(C)c(=O)c3cnccc23)cc(OC)c1CN1CCN(C(=O)c2ccc(C3CCCN3C(=O)/C(C#N)=C/c3nccs3)cc2)CC1 (mixture of isomers) [Compound A34, (E/Z)-2-(2-(4-(4-(2,6-dimethoxy-4-(2-methyl-1-oxo-1,2-dihydro-2,7-naphthyridin-4-yl)benzyl)piperazine-1-carbonyl)phenyl)pyrrolidine-1-carbonyl)-3-(thiazol-2-yl)acrylonitrile]",40 to 70,1.25 to 10,,
"COc1cc(-c2cn(C)c(=O)c3cnccc23)cc(OC)c1CN1CCN(Cc2ccc(C3CCCN3C(=O)/C(C#N)=C/c3nccs3)cc2)CC1 (mixture of isomers) [Compound A38, (E/Z)-2-(2-(4-((4-(2,6-dimethoxy-4-(2-methyl-1-oxo-1,2-dihydro-2,7-naphthyridin-4-yl)benzyl)piperazin-1-yl)methyl)phenyl)pyrrolidine-1-carbonyl)-3-(thiazol-2-yl)acrylonitrile]",40 to 70,1.25 to 10,,
COc1cc(-c2cn(C)c(=O)c3cnccc23)cc(OC)c1CN1C2CC1CN(Cc1cccc3c1CCN(C(=O)/C(C#N)=C/C(C)(C)C)C3C)C2 (mixture of isomers) [Compound A40],70 to 75,10 to 25,,
COc1cc(-c2cn(C)c(=O)c(C)c2C)cc(OC)c1CN1CCN(Cc2cccc3c2CCN(C(=O)/C(C#N)=C/C2CC2)C3C)CC1 (mixture of isomers) [Compound A44],40 to 70,1.25 to 10,,
COc1cc(-c2cn(C)c(=O)c(C)c2C)cc(OC)c1CN1CCN(Cc2cccc3c2CCN(C(=O)/C(C#N)=C/C2CCC2)C3C)CC1 (mixture of isomers) [Compound A45],70 to 75,1.25 to 10,,
COc1cc(-c2cn(C)c(=O)c3cnccc23)cc(OC)c1CN(C)Cc1ccc2c(c1)CCN(C(=O)/C(C#N)=C/C(C)(C)C)C2C (mixture of isomers) [Compound A46],40 to 70,1.25 to 10,,
"COc1cc(-c2cn(C)c(=O)c3cnccc23)cc(OC)c1CN(C)Cc1ccc2c(c1)C(C)N(C(=O)/C(C#N)=C/C(C)(C)C)CC2 (mixture of isomers) [Compound A47, (E/Z)-2-[7-[[2,6-dimethoxy-4-(2-methyl-1-oxo-2,7-naphthyridin-4-yl)phenylmethyl-methyl-amino]methyl]-1-methyl-3,4-dihydro-1H-isoquinoline-2-carbonyl]-4,4-dimethyl-pent-2-enenitrile]",40 to 70,10 to 25,,
"COc1cc(-c2cn(C)c(=O)c(C)c2C)cc(OC)c1CN1CCN(Cc2cccc3c2CCN(C(=O)/C(C#N)=C/c2ccc(C(F)(F)F)cn2)C3C)CC1 (mixture of isomers) [Compound A54, (E/Z)-2-(5-((4-(2,6-dimethoxy-4-(1,4,5-trimethyl-6-oxo-1,6-dihydropyridin-3-yl)benzyl)piperazin-1-yl)methyl)-1-methyl-1,2,3,4-tetrahydroisoquinoline-2-carbonyl)-3-(5-(trifluoromethyl)pyridin-2-yl)acrylonitrile]",40 to 70,1.25 to 10,,
"COc1cc(-c2cn(C)c(=O)c(C)c2C)cc(OC)c1CN1CCN(C(=O)CCc2ccc3c(c2)C(C)N(C(=O)/C(C#N)=C/c2nccs2)CC3)CC1 (mixture of isomers) [Compound A55, (E/Z)-2-(7(3-(4-(2,6-dimethoxy-4-(1,4,5-trimethyl-6-oxo-1,6-dihydropyridin-3-yl)benzyl)piperazin-1-yl)-3-oxopropyl)-1-methyl-1,2,3,4-tetrahydroisoquinoline-2-carbonyl)-3-(thiazol-2-yl)acrylonitrile]",40 to 70,10 to 25,,
"COc1cc(-c2cn(C)c(=O)c(C)c2C)cc(OC)c1CN1CCN(Cc2cccc(C3CCCN3C(=O)/C(C#N)=C/c3cccc(Br)n3)c2)CC1 (mixture of isomers) [Compound A63, (E/Z)-3-(6-bromopyridin-2-yl)-2-(2-(3-((4-(2,6-dimethoxy-4-(1,4,5-trimethyl-6-oxo-1,6-dihydropyridin-3-yl)benzyl)piperazin-1-yl)methyl)phenyl)pyrrolidine-1-carbonyl) acrylonitrile]",> 75,1.25 to 10,,
"COc1cc(-c2cn(C)c(=O)c(C)c2C)cc(OC)c1CN1CC2CCC(C1)N2Cc1cccc2c1CCN(C(=O)/C(C#N)=C/c1cccc(Br)n1)C2C (mixture of isomers) [Compound B8, (E/Z)-3-(6-bromopyridin-2-yl)-2-(5-((3-(2,6-dimethoxy-4-(1,4,5-trimethyl-6-oxo-1,6-dihydropyridin-3-yl)benzyl)-3,8-diazabicyclo[3.2.1]octan-8-yl)methyl)-1-methyl-1,2,3,4-tetrahydroisoquinoline-2-carbonyl)acrylonitrile]",,,1.25 to 10,40 to 70

# More lines, main results first:
Dmax at 1 µM [1] [%],DC50 [2] [nM],SMILES,"DC50 (Assay protocol 1, read-out: DC50) [nM]","Dmax (HEK293, Assay protocol 1, read-out: Dmax) [%]"
40 to 70,1.25 to 10,"COc1cc(-c2cn(C)c(=O)c3cnccc23)cc(OC)c1CN1CCN(Cc2cccc3c2CCN(C(=O)/C(C#N)=C/c2c(F)cccc2F)C3C)CC1 (mixture of isomers) [Compound A35, (E/Z)-3-(2,6-difluorophenyl)-2-[5-[[4-[[2,6-dimethoxy-4-(2-methyl-1-oxo-2,7-naphthyridin-4-yl)phenyl]methyl]piperazin-1-yl]methyl]-1-methyl-3,4-dihydro-1H-isoquinoline-2-carbonyl]prop-2-enenitrile]",,
> 75,1.25 to 10,"COc1cc(-c2cc(C)c(=O)n(C)c2)cc(OC)c1CN1CCN(Cc2cccc3c2CCN(C(=O)/C(C#N)=C/C(C)C)C3C)CC1 (mixture of isomers) [Compound A52, (E/Z)-2-(5-((4-(4-(1,5-dimethyl-6-oxo-1,6-dihydropyridin-3-yl)-2,6-dimethoxybenzyl)piperazin-1-yl)methyl)-1-methyl-1,2,3,4-tetrahydroisoquinoline-2-carbonyl)-4-methylpent-2-enenitrile]",,
40 to 70,10 to 25,"COc1cc(-c2cn(C)c(=O)c(C)c2C)cc(OC)c1CN1CCN(C(=O)CCc2ccc3c(c2)CCN(C(=O)/C(C#N)=C/c2nccs2)C3C)CC1 (mixture of isomers) [Compound A56, (E/Z)-2-(6-(3-(4-(2,6-dimethoxy-4-(1,4,5-trimethyl-6-oxo-1,6-dihydropyridin-3-yl)benzyl)piperazin-1-yl)-3-oxopropyl)-1-methyl-1,2,3,4-tetrahydroisoquinoline-2-carbonyl)-3-(thiazol-2-yl)acrylonitrile]",,
> 75,1.25 to 10,"COc1cc(-c2cn(C)c(=O)c(C)c2C)cc(OC)c1CN1CCN(C(=O)CCc2cccc3c2CCN(C(=O)/C(C#N)=C/c2nccs2)C3C)CC1 (mixture of isomers) [Compound A57, (E/Z)-2-(5-(3-(4-(2,6-dimethoxy-4-(1,4,5-trimethyl-6-oxo-1,6-dihydropyridin-4-yl)benzyl)piperazin-1-yl)-3-oxopropyl)-1-methyl-1,2,3,4-tetrahydroisoquinoline-2-carbonyl)-3-(thiazol-2-yl)acrylonitrile]",,
40 to 70,1.25 to 10,"CCCC(c1ccc(CCC(=O)N2CCN(Cc3c(OC)cc(-c4cn(C)c(=O)c(C)c4C)cc3OC)CC2)cc1)N(C)C(=O)/C(C#N)=C/c1nccs1 (mixture of isomers) [Compound A58, (E/Z)-2-cyano-N-(1-(4-(3-(4-(2,6-dimethoxy-4-(1,4,5-trimethyl-6-oxo-1,6-dihydropyridin-3-yl)benzyl)piperazin-1-yl)-3-oxopropyl)phenyl)butyl)-N-methyl-3-(thiazol-2-yl)acrylamide]",,
70 to 75,1.25 to 10,COc1cc(-c2cn(C)c(=O)c3cnccc23)cc(OC)c1CN(C)Cc1ccc2c(c1)C(C)N(C(=O)/C(C#N)=C/c1cccc(Br)n1)CC2 (mixture of isomers) [Compound A59],,
> 75,1.25 to 10,"COc1cc(-c2cn(C)c(=O)c(C)c2C)cc(OC)c1CN1CC2CC1CN2Cc1cccc2c1CCN(C(=O)/C(C#N)=C/c1cccc(Br)n1)C2C (mixture of isomers) [Compound A64, (E/Z)-3-(6-bromopyridin-2-yl)-2-(5-((5-(2,6-dimethoxy-4-(1,4,5-trimethyl-6-oxo-1,6-dihydropyridin-3-yl)benzyl)-2,5-diazabicyclo[2.2.1]heptan-2-yl)methyl)-1-methyl-1,2,3,4-tetrahydroisoquinoline-2-carbonyl)acrylonitrile]",,
